Laboratory results published in ChEMBL document CHEMBL3751701, “Class I and Class II Lanthipeptides Produced by Bacillus spp” (2015).
≈ marks a conversion by molar mass, not a printed value. Values belong to the compound of their own block, whether it stands above or below them.

Legend:
Lactococcus lactis = assay: Antibacterial activity against Lactococcus lactis MG1614 by agar diffusion assay; type: functional
Micrococcus luteus [1] = assay: Antibacterial activity against Micrococcus luteus […] 8166 by agar diffusion assay; type: functional
Bacillus cereus = assay: Antibacterial activity against Bacillus cereus UW85 after 120 mins by agar well diffusion method; type: functional; conditions: UW85, 2 h
Bacillus firmus = assay: Antibacterial activity against Bacillus firmus BCRC 11944 after 120 mins by agar well diffusion method; type: functional; conditions: Cytobacillus firmus, BCRC 11944, 2 h
Bacillus subtilis [2] = assay: Antibacterial activity against Bacillus subtilis 168 after 120 mins by agar well diffusion method; type: functional; conditions: subsp. subtilis str. 168, 2 h
Bacillus subtilis [3] = assay: Antibacterial activity against Bacillus subtilis BSn5 after 120 mins by agar well diffusion method; type: functional; conditions: BSn5, 2 h
Bacillus thuringiensis [4] = assay: Antibacterial activity against Bacillus thuringiensis BMB171 after 120 mins by agar well diffusion method; type: functional; conditions: BMB171, 2 h
Bacillus thuringiensis [5] = assay: Antibacterial activity against Bacillus thuringiensis YBT-1518 after 120 mins by agar well diffusion method; type: functional; conditions: YBT-1518, 2 h
Bacillus pumilus = assay: Antibacterial activity against Bacillus pumilus SCG I after 120 mins by agar well diffusion method; type: functional; conditions: 2 h
Enterococcus faecalis [6] = assay: Antibacterial activity against Enterococcus faecalis Bom3 after 120 mins by agar well diffusion method; type: functional; conditions: Bom3, 2 h
Microbacterium = assay: Antibacterial activity against Microbacterium Pri2 after 120 mins by agar well diffusion method; type: functional; conditions: Pri2, 2 h
Staphylococcus sciuri = assay: Antibacterial activity against Staphylococcus sciuri Bom1 after 120 mins by agar well diffusion method; conditions: Bom1, 2 h
Enterococcus faecium [7] = assay: Antibacterial activity against Enterococcus faecium ATCC 19579 after 18 to 20 hrs by agar well diffusion method; type: functional
Enterococcus faecium [8] = assay: Antibacterial activity against vancomycin-resistant Enterococcus faecium 7131121 after 18 to 20 hrs by agar well diffusion method; type: functional
Enterococcus faecalis [9] = assay: Antibacterial activity against Enterococcus faecalis ATCC 29212 after 18 to 20 hrs by agar well diffusion method; type: functional
Micrococcus luteus [10] = assay: Antibacterial activity against Micrococcus luteus ATCC 4698 after 18 to 20 hrs by agar well diffusion method; type: functional; conditions: NCTC 2665
[11] = tested on: Staphylococcus epidermidis; assay: Antibacterial activity against Staphylococcus epidermidis NCTC 11047 after 18 to 20 hrs by agar well diffusion method; type: functional
Staphylococcus aureus [12] = assay: Antibacterial activity against Staphylococcus aureus SH1000 after 18 to 20 hrs by agar well diffusion method; type: functional
Staphylococcus aureus [13] = assay: Antibacterial activity against methicillin-resistant Staphylococcus aureus R33 after 18 to 20 hrs by agar well diffusion method; type: functional
Staphylococcus aureus [14] = assay: Antibacterial activity against Staphylococcus aureus SG511 after 18 hrs by broth microdilution method; type: functional; conditions: SG511, 18 h
Staphylococcus aureus [15] = assay: Antibacterial activity against Staphylococcus aureus 137/93A after 18 hrs by broth microdilution method; type: functional
Staphylococcus aureus [16] = assay: Antibacterial activity against Staphylococcus aureus 137/93G after 18 hrs by broth microdilution method; type: functional
Streptococcus pneumoniae = assay: Antibacterial activity against Streptococcus pneumoniae BAA-255 after 18 to 20 hrs by agar well diffusion method; type: functional
Staphylococcus aureus [17] = assay: Ratio of MIC for Staphylococcus aureus 137/93A to MIC for Staphylococcus aureus SG511; type: functional
[18] = Ratio of MIC for Enterococcus faecalis ATCC 29212 to MIC for Enterococcus faecium ATCC 19579; type: functional

- MIC (Lactococcus lactis): 5.55 µM (≈ 19 µg/mL)
- MIC (Micrococcus luteus [1]): 0.0994 µM (≈ 0.34 µg/mL)
Compound: C=C(NC(=O)[C@@H](NC(=O)[C@H](CCCCN)NC(=O)[C@H]1CSC(C)C2NC(=O)[C@H](CC(C)C)NC(=O)C(NC(=O)[C@@H](CCC(N)=O)NC(=O)[C@@H](CC(C)C)NC(=O)[C@@H](Cc3ccccc3)NC(=O)[C@H]3CSC(C)C(NC(=O)[C@@H](NC(=O)[C@H]4CSC(C)C(NC(=O)[C@H]5CSC[C@@H](NC(=O)[C@@H](CCCCN)NC(=O)[C@H](Cc6c[nH]c7ccccc67)NC(=O)CCC(=O)O)C(=O)N[C@H](CCC(=O)O)C(=O)NC(=C)C(=O)N[C@H](CC(C)C)C(=O)N5)C(=O)N5CCC[C@H]5C(=O)NCC(=O)N4)C(C)C)C(=O)NCC(=O)N[C@H](C)C(=O)N[C@H](CC(C)C)C(=O)N[C@H](CCC(N)=O)C(=O)N/C(=C\C)C(=O)N3)C(C)SC[C@H](NC2=O)C(=O)N[C@@H](CC(N)=O)C(=O)N1)[C@@H](C)CC)C(=O)N[C@H](CCCCN)C(=O)O (stereo not given in full)

- MIC (Bacillus cereus): 7.8 µM (≈ 21.7 µg/mL)
- MIC (Bacillus firmus): 0.326 µM (≈ 0.909 µg/mL)
- MIC (Bacillus subtilis [2]): 5.2 µM (≈ 14.5 µg/mL)
- MIC (Bacillus subtilis [3]): 5.2 µM (≈ 14.5 µg/mL)
- MIC (Bacillus thuringiensis [4]): 1.3 µM (≈ 3.62 µg/mL)
- MIC (Bacillus thuringiensis [5]): 1.3 µM (≈ 3.62 µg/mL)
- MIC (Bacillus pumilus): 0.65 µM (≈ 1.81 µg/mL)
- MIC (Enterococcus faecalis [6]): 2.6 µM (≈ 7.25 µg/mL)
- MIC (Microbacterium): 5.2 µM (≈ 14.5 µg/mL)
- MIC (Staphylococcus sciuri): 1.95 µM (≈ 5.44 µg/mL)
Compound: C=C1NC(=O)[C@@H]2CSC(C)C(NC(=O)[C@@H]3CSC(C)C4NC(=O)CNC(=O)C(NC(=O)[C@H](CCCCN)NC(=O)[C@@H]5CSC[C@H](NC(=O)[C@@H](NC(=O)[C@H](CCCCN)NC(=O)[C@@H](NC(=O)[C@@H](NC(=O)/C(=C/C)NC(=O)/C(=C\C)NC(=O)[C@H](Cc6c[nH]c7ccccc67)NC(=O)C(=O)CC)[C@@H](C)CC)C(C)C)C(C)C)C(=O)N[C@@H](CCCCN)C(=O)N[C@@H](C)C(=O)N[C@@H](C(C)C)C(=O)N5)C(C)SC[C@H](NC4=O)C(=O)N[C@@H]([C@@H](C)CC)C(=O)N3)C(=O)N/C(=C\C)C(=O)N[C@@H](CSC[C@@H](C(=O)N[C@@H](CCCCN)C(=O)O)NC(=O)[C@H](CC(N)=O)NC1=O)C(=O)N2 (stereo not given in full)

Compound: C=C1NC(=O)C2NC(=O)[C@H](CC(C)C)NC(=O)C(NC(=O)[C@@H]3CSC(C)[C@H](NC(=O)[C@H](Cc4ccccc4)NC(=O)C4NC(=O)[C@@H](N)CSC4C)C(=O)N[C@@H](CC(C)C)C(=O)N4CCC[C@H]4C(=O)NCC(=O)NCC(=O)NCC(=O)NCC(=O)N[C@@H](C(C)C)C(=O)N3)C(C)SC[C@@H](NC(=O)[C@H](CCC(=O)O)NC1=O)C(=O)N[C@@H]([C@H](C)CC)C(=O)N/C=C/SC2C (stereo not given in full)
- MIC (Enterococcus faecium [7]): 17.5 µM (≈ 32 µg/mL)
- MIC (Enterococcus faecium [8]): 35.1 µM (≈ 64 µg/mL)
- MIC (Enterococcus faecalis [9]): 35.1 µM (≈ 64 µg/mL)
- MIC (Micrococcus luteus [10]): 0.657 µM (≈ 1.2 µg/mL)
- MIC [11]: 8.94 µM (≈ 16.3 µg/mL)
- MIC (Staphylococcus aureus [12]): 17.5 µM (≈ 32 µg/mL)
- MIC (Staphylococcus aureus [13]): 17.5 µM (≈ 32 µg/mL)
- MIC (Staphylococcus aureus [14]): 0.548 µM (≈ 1 µg/mL)
- MIC (Staphylococcus aureus [15]): 19.2 µM (≈ 35 µg/mL)
- MIC (Staphylococcus aureus [16]): 16.4 µM (≈ 30 µg/mL)
- MIC (Streptococcus pneumoniae): 1.1 µM (≈ 2 µg/mL)
- Ratio (Staphylococcus aureus [17]): 35
- Ratio [18]: 2
